Experimental data published in patent publication US20090291910A1, “AGENT AND FOOD FOR PREVENTING/IMPROVING FUNCTIONAL DIGESTIVE DISORDER” (AJINOMOTO CO., INC, priority 2004, published 2009).

Experiments:
[1] = system: NO release in the stomach mucous membrane; experiment: NO release in the stomach mucous membrane during intragastric perfusion (NO electrode); assay type: in vivo, SD rat
Description: SD rat was subjected to laparotomy with urethane anesthesia, a small incision was made in the anterior stomach and the small intestine, a 2 mm diameter polyethylene tube was inserted, and the perfusate was introduced and discharged with a Perista Pump. The perfusate was heated to 38° C. and the flow rate was 1 mL/min. The NO electrode was maintained under the lamina muscularis mucosae together with a temperature sensor, saline was perfused in the stomach for 2-3 hr, the released NO value was stabilized, and isotonic MSG solution (150 mM) was perfused during the time zone of 14:00-18:00.

stomach emptying [2] = experiment: gastric emptying rate, phenol red in 5% casein fluid diet; settings: oral in 5% casein fluid diet, 30 min; for stomach emptying rate: FIGS. 7A, 7B, 7C
[3] = system: vagus nerve afferent pathway; settings: cited from earlier work
[4] = system: plasma 5HT and 5HIAA in portal blood; experiment: leakage of serotonin and 5HIAA in the portal blood after intragastric administration; assay type: in vivo, SD rats; settings: 450 mM MSG 2 mL oral, 0-60 min
Description: Male SD rats (8-week-old) were used. They were bred in a light-dark control room with a 7:00-19:00 light period. […] The catheter was filled with saline containing 10 unit/mL heparin to prevent hematological coagulation in the catheter. Saline and MSG 450 mM solution were each administered orally by 2 mL using an oral sonde. The blood was drawn every 10 min from 10 min before the administration to 60 min after the administration. To prevent unnecessary platelet activation, blood samples were collected with sufficient attention. […] To the separated plasma was rapidly added an equivalent amount of a mixture (adjusted to pH 2) of acetic acid and hydrochloric acid to eliminate protein. The serotonin (5-HT) amount and 5HIAA amount contained in the supernatant were analyzed by an electric chemical detector (ECD-100, manufactured by Accom Inc.). The analysis conditions were as follows.
Using the aforementioned analysis method, serotonin and 5HIAA of stable metabolite thereof of the same sample were quantitated. […] Each was normalized based on the value at 0 min immediately after administration as 100%. The blood collection time immediately after 2 mL intragastric administration was taken as 0 min.

stomach emptying [5] = experiment: stomach emptying, glass beads distribution in stomach and small intestine; assay type: in vivo, SD rats; settings: 1% monosodium glutamate in 5% casein, 10 mL/kg oral; beads 1 hr later, autopsy 30 min later; N=5 vs N=4; FIG. 5
Description: 7-to 9-week-old male SD rats were fasted overnight and applied to the experiment. A test diet was orally administered at a volume of 10 mL/kg and, 1 hr later, about 80 glass beads having a diameter of 1 mm were orally administered. The rats were autopsied 30 min later, and the number of beads present in the stomach and small intestine was counted. The small intestine was divided into 4, and named B1-B4 from the area near the stomach.

Compound: N[C@@H](CCC(=O)O)C(=O)[O-].[Na+] [monosodium glutamate]
- NO concentration in the stomach mucous membrane ([1]; MSG (2.5%) perfusion, FIG. 3): confirmed to increase
- latent time of increase in released NO ([1]; isotonic MSG (2.5%) perfused in the stomach): ~15 min
- cases with an increase in the released NO ([1]; isotonic MSG (2.5%, 150 mM) perfused in the stomach): 3 cases out of 20 cases
- stomach emptying degree with the stomach emptying rate of the control group as 100 (stomach emptying [2]; FIGS. 6A, 6B): promoted stomach emptying
- activation of the vagus nerve afferent pathway ([3]; administration into the stomach and duodenum): activates the vagus nerve afferent pathway
- activation of the vagus nerve ([3]; intravenous and intraportal administration): does not activate the vagus nerve
- relative concentration of plasma 5HT in portal blood versus saline administration ([4]; FIG. 4A): no difference
- relative concentration of plasma metabolite 5HIAA in portal blood versus saline administration ([4]; FIG. 4B): showed an increase beyond the increase by the saline administration group

Compound: arginine glutamic acid salt
- comparison of stomach emptying effect with sodium salt (stomach emptying [2]; FIGS. 6A, 6B): promotes stomach emptying from lower doses as compared to sodium salt
- stomach emptying degree with the stomach emptying rate of the control group as 100 (stomach emptying [2]; FIGS. 6A, 6B): promoted stomach emptying

Compound: N[C@@H](CCC(=O)O)C(=O)O [glutamic acid]
- distribution of beads in stomach and small intestine versus control group (stomach emptying [5]): tends to contain a smaller number of beads in the stomach and a large number of beads in the small intestine

Compound: N[C@@H](CCC(=O)[O-])C(=O)[O-].[Ca+2] [calcium glutamate]
- stomach emptying rate (stomach emptying [2]): promote stomach emptying

Compound: lysine glutamic acid salt
- stomach emptying rate (stomach emptying [2]): promote stomach emptying
